Measurements: patent publication US20060099712A1, “Correlation of anti-cancer activity of dyes with redox potentials” (Eastman Kodak Company, priority 2004, published 2006)
“And” between values parts separate entries of the source, which are not always exact repeats. Identical values can stand only once. Like-named read-outs stand apart in the source and are kept apart here.

What was measured:
[1] = test system: CV-1 Normal Monkey Kidney Epithelial; experiment: Clonogenic dye screening assay, CV-1 cells (IC50); type: cell-based, African green monkey; conditions: for IC50: Primates; for CV (IC50 in the CV-1 cell line): 3 hrs treatment, unit from method b117-118
From the text: CX-1 is a cancerous human colon adenocarcinoma cell line. CV-1 is a non-cancerous control, which is a kidney epithelial cell line from an African green monkey. IC50 is the dye concentration at which 50% of the cells are killed. Selectivity or kill ratio is defined as the ratio of […] at IC50 for both CX-1 and CV-1. A ratio with a high number indicates a high selectivity.
The dyes were screened in two cell lines. CX-1 is a human colon adenocarcinoma cell line. CV-1 is a kidney epithelial cell line from an African green monkey. CV-1 was used as a reference because no normal human epithelial cell line is available for clonogenic assay.
In the initial screen, dyes were examined at six different concentrations to generate a dose response curve. An IC50 value, the concentration at which 50% of the cells are killed, was then calculated. Initially, a dye concentration of 1.0 μg/mL was the highest examined for the CX-1 cell line and 0.005 μg/mL was the lower limit. The corresponding limits on the CV-1 cell line were […].
The screening procedure used a response curve that was determined from eight dye concentrations. The upper and lower limits of CX-1 were 0.32 and 0.0015 μg/mL, respectively, and the corresponding revised limits on CV-1 were 3.2 and 0.025 μg/mL. The screening results were reported by assigning an IC50 value to each dye for the CV-1 and CX-1 cell lines. These values will be referred to herein simply as CV and CX. The most desirable result would be to have a dye that was highly toxic to carcinoma cells but nontoxic to ‘normal’ cells. One measure of this type of selectivity is the ratio of the IC50's in the normal cell line to that in the carcinoma line, CV/CX.
Compounds are screened via an in vitro assay. CV-1 and CX-1 cells are seeded into separate assay plates. The plates are treated with varying concentrations of test compounds, rinsed, and colonies allowed to grow. IC50's are determined and drugs evaluated based on their selectivity and toxicity. Assay Steps: • I. Seeding Cells • II. Weighing • III. Preparation of Solution • IV. Treatment • V. Rinsing and Feeding • VI. Fixing • VII. IC50 Determination I. Seeding Cells
The cells should be seeded 16-30 hours before treatment. The media for CV-1 cells is DME+5% calf serum +5% Nuserum. The media for CX-1 cells is RPMI/DME (50/50)+5% calf serum +5% Nuserum.
(c) number of cells based on 2000 CX-1 cells/well and 1000 CV-1 cells/well. NOTE: Always make enough cell suspension for 1 extra plate to allow for volume loss during transfers.
• (a) For CV-1: 256 ug/ml-256 ul of 1 mg/ml stock +744 ul DMSO • (b) For CX-1: 25.6 ug/ml-100 ul of 256 ug/ml+900 ul DMSO IV. Treatment • 1. Each plate is treated with 4 test compounds, one positive control and one negative control. • 2. Serial dilutions of the compounds are made in the following way:
2 multi-well pipetters are used. One is set for 10 ul and one for 200 ul. Each is equipped with 6 tips spaced such that they fit into the 6 rows of a plate. 390 ul of media is added to the first column of each plate. 10 ul each of 4 compound solutions, a positive and a negative control are taken up and put into the first column of wells. The 200 ul pipetter is then placed in the same wells, pipetted up and down 3 times and two 200 ul aliquots are moved to the next column of wells. This column is pipetted up and down 3 times and 400 ul moved to column 3, etc. The final 400 ul excess from column 8 is discarded.
• 3. Label the plates along the front, each row −1 compound. • 4. Incubate the plates at 37° C. for 3 hrs. V. Rinsing • 1. Prepare several bottles of CX-1 and CV-1 media. • 2. Check for precipitate in first column of each plate and note. • 3. Starting with the plates treated first, rinse several plates at a time by aspirating the treatments and refilling each well with 0.5-1.0 ml of the rinse media. Aspirate and refill 2 more times for a total of 3 rinses. • 4.

[2] = test system: CX-1 Human Colon Carcinoma; experiment: Clonogenic dye screening assay, CX-1 cells (IC50); type: cell-based; conditions: for IC50: Homo sapiens; for Selectivity: Table 1, cell line not given, values equal CV/CX of Table II; for CV/CX (selectivity, kill ratio): ratio of IC50 in normal CV-1 line to IC50 in carcinoma CX-1 line; for CV/CX: selectivity ratio of IC50 values; for CX (IC50 in the CX-1 cell line): 3 hrs treatment, unit from method b117-118
Method in brief: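 Cells seeded 16-30 h ahead (2000 CX-1 or 1000 CV-1 per well), exposed to serially diluted dyes for 3 h at 37 °C, rinsed three times, then grown into colonies. Eight-point curves spanned 0.32-0.0015 μg/mL (CX-1) and 3.2-0.025 μg/mL (CV-1). IC50 is the concentration killing 50% of cells.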

[3] = Electrochemical reduction potential (Er) measurement, SHACV / fast scan CV; type: physicochemical
From the text: In the practice of this invention the reduction potential of a given dye may be determined in various ways. If available, the published reduction potential may be employed. Reduction potentials for numerous cyanine and merocyanine dyes are available in the literature. (See J. Lenhard, Journal of Imaging Science, vol. 30 pp. 27-35 (1986).) A large amount of data has been generated on the reduction and oxidation potentials of these dyes from their use in photography and related arts where they are employed, inter alia, as spectral sensitizers.
If a published reduction potential is not available, suitable techniques for measuring reduction potential are available. Accurate electrochemical oxidation and reduction potentials for these organic dyes can be measured by the techniques of fast scan cyclic voltommetry (CV) or second harmonic ac voltommetry (SHACV). SHACV measurements are made as described by Lenhard in the Journal of Imaging Science volume 30, 1986 pp 27-35 using a commercially available (Princeton Applied Research Corp.) potentiostat in conjunction with voltage programmer, a conventional lock-in amplifier, and a low-distortion oscillator. The SHACV method utilizes an ac voltage waveform (of a frequency greater than or equal to 400 hz) that is superimposed on a DC potential ramp. On the other hand, the measurement of the oxidation or reduction potential by the CV method utilizes a (high frequency) triangular voltage waveform. The general procedures for measuring potentials by this method have been described by Wightman in Analytical Chemistry, 1984, vol. 56, pp524 and Journal of Physical Chemistry, 1984, vol. 88, pp3915. The specific application of this technique to the measurement of cyanine dye potentials has been reported by Nomura and Okazaki, Chemistry Letters, 1990, pp2231-2234. Commercial instrumentation especially designed for fast scan (i.e., high frequency) CV is available. It is noteworthy that because of the complicated nature of many of the cyanine dyes, electrochemical reactions, conventional slow scan cyclic voltommetry or polarography methods (as described by R. Large in Photographic Sensitivity, R. Cox, ed., Academic Press, New York, 1973, pp 241-263) provide only approximate values for oxidation and reduction potentials. Errors as large as 0.4 V from the true potential can be obtained by using slow scan CV or electrochemical methods.
The procedure for measuring the oxidation or reduction potential by the SHACV or fast scan CV method utilizes solutions of acetonitrile (or similar nonaqueous solvent) with added tetrabutylammonium tetrafluoroborate TBABF4 at a concentration of 0.1 M and ca. 5×10^−4 M of the cyanine, oxonol, or merocyanine dye. For measurement of the reduction potential the solution must be deaerated with argon prior to examination. The preferred working electrode is a Pt disk (ca. 0.02 cm^2) that is polished with 1 μm diamond paste, rinsed with water, and dried before each experiment. The reference electrode is a NaCl saturated calomel electrode. The cell and reference electrodes are maintained at 22 C. A value of 40 mV is added to the measured potentials to convert the number to that corresponding to an Ag/AgCl reference electrode. If a solvent other than acetonitrile is used then the measured potential must be referenced to a standard organic redox system such as ferrocene and corrected accordingly.
SHACV (Second Harmonic Alternating Current Voltametry) measurements are made as described by Lenhard in the Journal of Imaging Science volume 30, 1986 pp 27-35 using a commercially available (Princeton Applied Research Corp.) potentiostat in conjunction with voltage programmer, a conventional lock-in amplifier, and a low-distortion oscillator. The SHACV method utilizes an ac voltage waveform (of a frequency greater than or equal to 400 hz) that is superimposed on a DC potential ramp. […]

[4] = CV-1, 3 hrs treatment, colonies after 7-10 days, unit from method, read-out: CV (IC50 in the CV-1 cell line)
[5] = CX-1, 3 hrs treatment, colonies after 7-10 days, unit from method, read-out: CX (IC50 in the CX-1 cell line)
[6] = CV-1, read-out: CV (IC50 in the CV-1 cell line)
[7] = CX-1, read-out: CX (IC50 in the CX-1 cell line)

IC50 [2, 5] [µg/mL]	ER(v), electrochemical reduction potential [3] [V]	Compound	IC50 [1, 4] [µg/mL]	Selectivity [2]	CV/CX (selectivity, kill ratio) [2]	other results
0.01	−1.1	CCN1/C(=c2\s/c(=c3\s/c(=C/c4sc5ccccc5[n+]4CC)n(CC)c3=O)n(CC)c2=O)Sc2ccccc21 [Dye D-112]	9	900	900	–
0.03	–	CCN1/C(=C/C=C/c2oc3ccc(-c4ccccc4)cc3[n+]2CCOC(C)=O)Sc2ccccc21 [Dye D-153]	3	–	100	–
3	−0.9	Clc1ccc2c(c1)N1CCC(/C=C3\CC[n+]4c3sc3ccc(Cl)cc34)=C1S2 [Dye D-168]	–	100.0	100.0	–

Second part, the molecule before the results:

Compound	IC50 [2, 5] [µg/mL]	ER(v), electrochemical reduction potential [3] [V]	IC50 [1, 4] [µg/mL]	Selectivity [2]	CV/CX (selectivity, kill ratio) [2]	other results
CC[n+]1c(/C=C/C(C(=O)c2ccccc2)=P(c2ccccc2)(c2ccccc2)c2ccccc2)sc2ccccc21 [Dye D-148]	0.04	−1.15	> 10	250	250	–
CC[n+]1c(/C=C/C=C2\[Te]c3ccccc3N2C)sc2ccccc21 [Dye D-152]	–	–	–	–	60	IC50 ([1]; CV-1, read-out: CV): 0.3 µg/mL; IC50 [1, 6]: 0.3 µg/mL; IC50 ([2]; CX-1, read-out: CX): < 0.005 µg/mL; IC50 [2, 7]: < 0.005 µg/mL; CV/CX ([2]; Table XVI): >60.0; CX ([2]; Table XVII, benzotellurazole derivatives, CX-1 cells): <0.005; CV/CX ([2]; Table XVII): >60.0
CC[n+]1c(/C=C/c2ccc(N(C)C)cc2)[te]c2ccc(C)cc21 [Dye D-156]	–	–	–	–	60	IC50 [1, 6]: 3 µg/mL; IC50 [2, 7]: 0.05 µg/mL
CCN1/C(=C/C=C/C=C/c2sc3cc4ccccc4cc3[n+]2CC)Sc2cc3ccccc3cc21 [Dye D-162]	–	–	3	–	60	–
CCN1/C(=C/C=c2\s/c(=C\c3sc4ccccc4[n+]3CC)n(CCC(=O)O)c2=O)Sc2ccccc21 [Dye D-167]	–	–	10	–	100.0	–
CC(=CC(C)=C1Sc2ccccc2N1C)c1sc2ccccc2[n+]1C [drawing 38|M|Me|H|Me]	–	–	–	–	2.5	CV (IC50 in the CV-1 cell line) ([1]; colonies after 7-10 days): 0.5 µg/mL; CX (IC50 in the CX-1 cell line) ([2]; colonies after 7-10 days): 0.2 µg/mL
CCN1/C(=C/C(C)=C/c2sc3ccc4ccccc4c3[n+]2CC)Oc2ccc3ccccc3c21 [drawing 40|E|Me]	–	–	–	–	3.33 and 2.0	CV (IC50 in the CV-1 cell line) ([1]; colonies after 7-10 days): 0.1 µg/mL; CX (IC50 in the CX-1 cell line) ([2]; colonies after 7-10 days): 0.03 µg/mL and 0.05 µg/mL
